Source: article PMC9600589, “The Heptaprenyl Diphosphate Synthase (Coq1) Is the Target of a Lipophilic Bisphosphonate That Protects Mice against Toxoplasma gondii Infection” (mBio, 2022)

Legend:
T. gondii RH strain = test: Acute lethal infection of mice with RH tachyzoites; type: in vivo, Swiss Webster mice; settings: mice infected with 100 RH tachyzoites, intraperitoneal, daily for 10 days from 6 h postinfection
Method: (§1) At this point, live mice were inoculated with δ-luciferin for visualization of the infection in an IVIS illumination system ([34]).
Experiments were carried out as described previously ([49]) using 100 T. gondii tachyzoites of the RH strain to infect Webster mice. Drugs were dissolved in 10% kolliphor HS 15 and were inoculated intraperitoneally. Treatment was initiated 6 h after infection and administered daily for 10 days.

T. gondii RH-cLuc-GFP = test: Dissemination of infection, luciferase-expressing RH parasites, in vivo imaging; parameters: species or system Swiss Webster mice; settings: 1 mg/kg single daily dose for 8 days
From the text: as §1

T. cruzi = test system: T. cruzi; parameters: method as in PMID 24789335; settings: cited from earlier work
[1] = test system: T. gondii RH parental strain; test: Plaque assay measuring growth reversibility after drug removal; type: cell-based, Toxoplasma gondii; settings: 7 days with 1 μM or 2 μM, then 7 days without drug
hTERT cells = test: Cytotoxicity to hTERT cells (alamarBlue); settings: for % Inhibition (cytotoxicity): hTERT cells
Method: The cytotoxicity was tested using an alamarBlue assay as described by Recher et al. ([67]).

CCCCCCCCCCn1cc[n+](CC(P(=O)([O-])O)P(=O)(O)O)c1 (stereo not shown) [BPH-1218]
ED50 (T. gondii RH strain): 0.69 mg/kg/day
effect on virulence and dissemination of the infection (T. gondii RH-cLuc-GFP): remarkable effect on both virulence and dissemination of the infection
decrease in UQ9 biosynthesis (T. cruzi): 40%
reversibility of growth inhibition after drug removal [1]: irreversible
toxicity against human fibroblast cells (hTERT cells): very little toxicity
% Inhibition (cytotoxicity) (hTERT cells; at 4X EC50 (concentration in μM in brackets)): 4.30 ± 2.31%
% Inhibition (cytotoxicity) (hTERT cells; at 10X EC50 (concentration in μM in brackets)): 10.28 ± 1.07%
